Reference: US9409952B2, “Peptide-compound cyclization method” (Chugai Seiyaku Kabushiki Kaisha, priority 2011, dated 2016)
Starred links: 1 amine or outer side, 2 acyl side, 3 side chain; linkers in the order of their positions; H or OH if unused. Positions of bridges follow the written chain, without caps; N, C: chain ends. Non-standard residues stand in square brackets, D forms with d. Residues, ends and D or L forms follow the SMILES beside them. *: point of attachment. NMePhe(3-Cl) = CN[C@@H](Cc1cccc(Cl)c1)C(=O)O; NMeF = CN[C@@H](Cc1ccccc1)C(=O)O; NMeGABA = CN(CCCC(=O)[*:2])[*:1]; NMeI = CC[C@H](C)[C@H](NC)C(=O)O; 3Pal = N[C@@H](Cc1cccnc1)C(=O)O; NMeβAla = CN(CCC(=O)[*:2])[*:1]; NMeL = CN[C@@H](CC(C)C)C(=O)O; NMeV = CN[C@H](C(=O)O)C(C)C; NMeA = CN[C@@H](C)C(=O)O; Piperidide = C1CCN(*)CC1; dNMeA = CN[C@H](C)C(=O)O; β3hA = C[C@H](N)CC(=O)O; Sar = CNCC(=O)O; tBu = CC(C)(C)*

How the values were obtained:
[1] = Metabolic stability in human hepatic microsome; format: in vitro ADME; conditions: microsomes, pH 7.4; human hepatic microsome, NADPH(+); read-out: CL NADPH(+)
[2] = PAMPA (parallel artificial membrane permeability assay); format: in vitro ADME; conditions: membrane permeation rate (Pe), 50 mM MOPSO buffer pH 6.5 with 5.0% glycocholic acid, 37° C., 18 hours; for Papp at 18 hours, 50 µM: PAMPA, read-out: iPAMPA Pe
Procedure, shortened: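 Artificial membrane was 10% (w/v) egg lecithin plus 0.5% (w/v) cholesterol in dodecane on a PVDF filter. A 10 mM DMSO stock was added at 0.5% (v/v) to donor buffer (50 mM MOPSO, pH 6.5, 5.0% glycocholic acid). After 18 h at 37 °C, LC/MS or LC/UV gave donor and acceptor levels for Pe.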

Compound	microsomal CLint at 1 uM [1] [µL/min/mg]	Papp at 18 hours, 50 µM [2] [×10⁻⁶ cm/s]	iPAMPA Pe [2]
CC[C@H](C)[C@H](NC(=O)[C@@H]1CC(=O)N[C@@H](C)C(=O)N[C@@H]([C@@H](C)O)C(=O)N(C)CC(=O)N[C@@H](CC(C)C)C(=O)N2CCC[C@H]2C(=O)N(C)[C@@H](CC(C)C)C(=O)N[C@@H](Cc2ccccc2)C(=O)N(C)[C@@H](Cc2ccccc2)C(=O)N(C)[C@@H](C)C(=O)N(C)[C@@H](CC(C)C)C(=O)N[C@@H](C)C(=O)N(C)[C@@H](CC(C)C)C(=O)N1)C(=O)N1CCCCC1 [DP-955] (AT[Sar]LP[NMeL]F[NMeF][NMeA][NMeL]A[NMeL]DI-Piperidide; lactam N-13)	30	6.3	–
CC(C)C[C@H]1C(=O)N[C@@H](Cc2ccccc2)C(=O)N(C)[C@@H](C)C(=O)N(C)[C@@H](C)C(=O)N[C@@H]([C@@H](C)O)C(=O)N(C)CC(=O)N(C)[C@@H](Cc2ccccc2)C(=O)N[C@H](C(=O)N(C)[C@@H](Cc2ccccc2)C(=O)N[C@@H](C)C(=O)N2CCCCC2)CC(=O)N(C)[C@H](C)C(=O)N(C)[C@@H](C)C(=O)N[C@@H](C)C(=O)N1C [DP-363] ([dNMeA][NMeA]A[NMeL]F[NMeA][NMeA]T[Sar][NMeF]D[NMeF]A-Piperidide; lactam N-11)	15	5	–
CC(C)C[C@H]1C(=O)N(C)[C@@H](CC(C)C)C(=O)N[C@@H](C(C)C)C(=O)N[C@H](C(=O)N(C)[C@@H](Cc2ccccc2)C(=O)N(C)[C@@H](Cc2ccccc2)C(=O)N[C@@H](C)C(=O)N2CCCCC2)CC(=O)N(C)CCC(=O)N(C)[C@@H](C)C(=O)N(C)[C@@H](Cc2ccccc2)C(=O)N[C@@H]([C@@H](C)O)C(=O)N(C)CC(=O)N1C [DP-212] ([NMeβAla][NMeA][NMeF]T[Sar][NMeL][NMeL]VD[NMeF][NMeF]A-Piperidide; lactam N-9)	27	29	–
CC(C)C[C@H]1C(=O)N[C@H](C(=O)N2CCCCC2)CC(=O)N[C@H](C)C(=O)N(C)[C@@H](Cc2ccccc2)C(=O)N(C)[C@@H](CC(C)C)C(=O)N[C@@H]([C@@H](C)O)C(=O)N(C)[C@@H](CC(C)C)C(=O)N[C@@H](COC(C)(C)C)C(=O)N1C [DP-684] ([dA][NMeF][NMeL]T[NMeL]S(tBu)[NMeL]D-Piperidide; lactam N-8)	126	23	–
CC(C)C[C@@H]1NC(=O)[C@H](Cc2cccnc2)NC(=O)[C@H](Cc2ccccc2)N(C)C(=O)[C@H](CC(C)C)NC(=O)[C@H](CC(C)C)N(C)C(=O)[C@H](Cc2ccccc2)NC(=O)[C@H](CC(C)C)N(C)C(=O)[C@H](CC(C)C)N(C)C(=O)[C@H](Cc2ccccc2)NC(=O)CN(C)C(=O)C[C@@H](C(=O)N(C)[C@@H](Cc2ccccc2)C(=O)N[C@@H](C)C(=O)N2CCCCC2)NC1=O [DP-600] ([Sar]F[NMeL][NMeL]F[NMeL]L[NMeF][3Pal]LD[NMeF]A-Piperidide; lactam N-11)	12	–	1.0E−07
CC[C@H](C)[C@@H]1NC(=O)[C@@H](C)N(C)C(=O)C[C@@H](C(=O)N2CCCCC2)NC(=O)[C@H](Cc2ccccc2)NC(=O)[C@H]([C@@H](C)O)NC(=O)[C@H](CC(C)C)NC(=O)[C@H](CC(C)C)NC(=O)CN(C)C(=O)[C@H](CC(C)C)NC(=O)[C@H](C)NC(=O)[C@H](CC(C)C)NC1=O [DP-327] ([dNMeA]ILAL[Sar]LLTFD-Piperidide; lactam N-11)	70	3.5	–
CC[C@H](C)[C@H]1C(=O)N[C@@H](COC(C)(C)C)C(=O)N[C@@H](C)CC(=O)N(C)[C@@H](C)C(=O)N(C)[C@@H](Cc2cccc(Cl)c2)C(=O)N(C)CC(=O)N(C)[C@@H](CC(C)C)C(=O)N[C@@H]([C@@H](C)O)C(=O)N(C)[C@@H](C)C(=O)N(C)[C@@H](CC(C)C)C(=O)N1C [DP-803] (cyclo([NMeA][NMeL][NMeI]S(tBu)[β3hA][NMeA][NMePhe(3-Cl)][Sar][NMeL]T))	85	28	–
CC(C)C[C@@H]1NC(=O)[C@H](CC(C)C)N(C)C(=O)[C@H](C)N(C)C(=O)[C@@H](C(C)C)NC(=O)C[C@@H](C(=O)N2CCCCC2)NC(=O)[C@H](CCC(N)=O)NC(=O)[C@H](CC(C)C)N(C)C(=O)CN(C)C(=O)[C@H](CC(C)C)N(C)C(=O)[C@H](Cc2ccccc2)NC(=O)[C@H](Cc2ccccc2)N(C)C1=O [DP-617] ([dV][NMeA][NMeL]L[NMeF]F[NMeL][Sar][NMeL]QD-Piperidide; lactam N-11)	30	29	–
CC(C)[C@@H]1NC(=O)[C@H](C)N(C)C(=O)[C@H](C)N(C)C(=O)[C@H](Cc2ccccc2)N(C)C(=O)CNC(=O)[C@H]([C@@H](C)O)NC(=O)[C@H](C(C)C)N(C)C(=O)[C@H](C)NC(=O)[C@H](C)N(C)C(=O)C[C@@H](C(=O)N(C)[C@@H](Cc2ccccc2)C(=O)N(C)[C@@H](Cc2ccccc2)C(=O)N[C@@H](C)C(=O)N2CCCCC2)NC1=O [DP-457] ([NMeA]A[NMeV]TG[NMeF][NMeA][NMeA]VD[NMeF][NMeF]A-Piperidide; lactam N-10)	14	10	–
CC[C@H](C)[C@H](NC(=O)[C@H](CC(C)C)N(C)C(=O)[C@@H]1CCCN1C(=O)[C@@H](NC(=O)[C@H](C)N(C)C(=O)[C@@H]1CC(=O)N[C@@H](C)C(=O)N(C)[C@@H](CC(C)C)C(=O)N(C)[C@@H](Cc2cccc(Cl)c2)C(=O)N[C@@H](C(C)C)C(=O)N(C)[C@@H](CC(C)C)C(=O)N(C)[C@@H](CC(C)C)C(=O)N[C@@H]([C@@H](C)O)C(=O)N[C@@H](Cc2ccccc2)C(=O)N1)C(C)C)C(=O)N1CCCCC1 [DP-936] (A[NMeL][NMePhe(3-Cl)]V[NMeL][NMeL]TFD[NMeA]VP[NMeL]I-Piperidide; lactam N-9)	29	0.11	–
CC[C@H](C)[C@@H]1NC(=O)[C@H](C)N(C)C(=O)[C@H](C)N(C)C(=O)C[C@@H](C(=O)N2CCCCC2)NC(=O)[C@H](CC(C)C)N(C)C(=O)[C@H](Cc2ccccc2)N(C)C(=O)[C@H](C)N(C)C(=O)[C@H]([C@@H](C)O)NC(=O)[C@H](Cc2ccccc2)N(C)C(=O)[C@H](CC(C)C)N(C)C1=O [DP-258] ([NMeA][NMeA]I[NMeL][NMeF]T[NMeA][NMeF][NMeL]D-Piperidide; lactam N-10)	188	52	–
CC[C@H](C)[C@H](NC(=O)[C@H](C)N(C)C(=O)[C@H](CC(C)C)N(C)C(=O)[C@H](CC(C)C)NC(=O)[C@@H]1CC(=O)N[C@@H](Cc2ccccc2)C(=O)N[C@@H]([C@@H](C)CC)C(=O)N(C)[C@@H](CC(C)C)C(=O)N(C)[C@@H](CC(C)C)C(=O)N[C@@H](Cc2ccccc2)C(=O)N[C@@H]([C@@H](C)O)C(=O)N(C)[C@@H](Cc2cccc(Cl)c2)C(=O)N1)C(=O)N1CCCCC1 [DP-931] (FI[NMeL][NMeL]FT[NMePhe(3-Cl)]DL[NMeL][NMeA]I-Piperidide; lactam N-8)	12	0.1	–
CC(C)C[C@H]1C(=O)N[C@H](C(=O)N(C)[C@@H](Cc2ccccc2)C(=O)N(C)[C@@H](Cc2ccccc2)C(=O)N[C@@H](C)C(=O)N2CCCCC2)CC(=O)N[C@@H](C)C(=O)N(C)[C@@H](Cc2ccccc2)C(=O)N(C)[C@@H](C)C(=O)N(C)[C@@H](CC(C)C)C(=O)N[C@@H]([C@@H](C)O)C(=O)N(C)[C@@H](C)C(=O)N(C)[C@@H](CC(C)C)C(=O)N[C@@H](C(C)C)C(=O)N1C [DP-203] (A[NMeF][NMeA][NMeL]T[NMeA][NMeL]V[NMeL]D[NMeF][NMeF]A-Piperidide; lactam N-10)	18	11	–
CC[C@H](C)[C@H]1C(=O)N(C)[C@@H](CC(C)C)C(=O)N[C@@H](Cc2ccccc2)C(=O)N[C@@H]([C@@H](C)O)C(=O)N[C@@H](CC(C)C)C(=O)N(C)[C@@H](Cc2ccccc2)C(=O)N(C)[C@@H](C(C)C)C(=O)N[C@H](C(=O)N(C)CC(=O)N(C)[C@@H](C)C(=O)N(C)[C@@H](CC(C)C)C(=O)N[C@@H](C)C(=O)N2CCCCC2)CC(=O)N[C@H](C)C(=O)N[C@@H](C)C(=O)N1C [DP-670] ([dA]A[NMeI][NMeL]FTL[NMeF][NMeV]D[Sar][NMeA][NMeL]A-Piperidide; lactam N-10)	22	12	–
CC(C)C[C@@H]1NC(=O)CCCN(C)C(=O)C[C@@H](C(=O)N2CCCCC2)NC(=O)[C@H](Cc2ccccc2)N(C)C(=O)[C@H]([C@@H](C)O)NC(=O)[C@H](CC(C)C)N(C)C(=O)[C@H](COC(C)(C)C)NC1=O [DP-716] ([NMeGABA]LS(tBu)[NMeL]T[NMeF]D-Piperidide; lactam N-7)	133	21	–
CC(C)C[C@@H]1NC(=O)CN(C)C(=O)[C@H](CC(C)C)NC(=O)[C@H](C)NC(=O)[C@H](CC(C)C)NC(=O)[C@H](CC(C)C)NC(=O)[C@H](C)N(C)C(=O)C[C@@H](C(=O)N2CCCCC2)NC(=O)[C@H]([C@@H](C)O)NC(=O)[C@H](Cc2ccccc2)NC(=O)[C@H](CC(C)C)NC1=O [DP-420] ([NMeA]LLAL[Sar]LLFTD-Piperidide; lactam N-11)	69	10	–
CC(C)C[C@@H]1NC(=O)[C@H](CC(C)C)N(C)C(=O)[C@@H](C(C)C)NC(=O)C[C@@H](C(=O)N2CCCCC2)NC(=O)[C@H](CC(C)C)N(C)C(=O)[C@H](Cc2ccccc2)N(C)C(=O)[C@H](C)N(C)C(=O)[C@H]([C@@H](C)O)NC(=O)[C@H](Cc2ccccc2)N(C)C1=O [DP-264] ([dV][NMeL]L[NMeF]T[NMeA][NMeF][NMeL]D-Piperidide; lactam N-9)	94	37	–
